Reference: patent US8614201B2 (Janssen Pharmaceutica NV, priority 2009, dated 2013)
pIC50: −log10 of the molar value.

These compounds were tested against T1, Human TRPA1 (Homo sapiens, UniProt O75762) (assay: Alternative TRPA1 Ca2+ fluorometry assay (hTRPA1/TREx-HEK293 cells, Fluo-4, FDSS 6000)). Conditions: Fluo-4-AM, agonist 6,11-dihydro-5H-dibenzo[b,e]azepine-10-carboxylic acid methyl ester 25 nM, procedure used for Examples 184, 190 to 192, 194 to 316.
T1 sequence (O75762 whole entry): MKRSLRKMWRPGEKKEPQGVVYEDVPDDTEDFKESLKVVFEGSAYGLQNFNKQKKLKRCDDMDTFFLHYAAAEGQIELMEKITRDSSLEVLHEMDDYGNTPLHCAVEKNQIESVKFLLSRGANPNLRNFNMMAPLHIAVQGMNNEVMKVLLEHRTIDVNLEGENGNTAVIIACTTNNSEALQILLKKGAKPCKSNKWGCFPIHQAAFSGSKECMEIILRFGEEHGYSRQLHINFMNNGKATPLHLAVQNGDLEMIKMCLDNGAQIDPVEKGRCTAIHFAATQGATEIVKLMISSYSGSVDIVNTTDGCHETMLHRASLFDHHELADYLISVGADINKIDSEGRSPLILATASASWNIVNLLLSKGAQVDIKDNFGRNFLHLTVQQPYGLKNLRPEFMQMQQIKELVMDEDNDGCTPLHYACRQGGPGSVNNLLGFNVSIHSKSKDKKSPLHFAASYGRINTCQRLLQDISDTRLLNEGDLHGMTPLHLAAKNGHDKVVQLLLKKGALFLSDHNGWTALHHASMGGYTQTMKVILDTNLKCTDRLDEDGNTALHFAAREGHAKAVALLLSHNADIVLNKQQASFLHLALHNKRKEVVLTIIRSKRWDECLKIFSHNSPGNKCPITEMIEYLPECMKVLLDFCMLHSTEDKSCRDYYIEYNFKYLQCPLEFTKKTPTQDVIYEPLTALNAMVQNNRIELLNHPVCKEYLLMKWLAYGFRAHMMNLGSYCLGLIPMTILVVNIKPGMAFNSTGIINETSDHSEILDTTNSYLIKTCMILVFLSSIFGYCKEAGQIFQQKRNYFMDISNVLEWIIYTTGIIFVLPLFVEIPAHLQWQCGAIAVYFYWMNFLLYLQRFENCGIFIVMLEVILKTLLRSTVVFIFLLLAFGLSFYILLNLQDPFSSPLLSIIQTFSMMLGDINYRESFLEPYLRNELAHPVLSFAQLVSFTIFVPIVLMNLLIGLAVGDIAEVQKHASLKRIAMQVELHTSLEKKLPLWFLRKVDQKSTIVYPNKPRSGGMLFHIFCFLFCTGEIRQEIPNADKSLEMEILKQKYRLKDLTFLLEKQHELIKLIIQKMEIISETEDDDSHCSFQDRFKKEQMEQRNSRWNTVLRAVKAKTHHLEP
Assay type: cell-based
Design: expressed in transfected cells
Method: In alternative embodiments, the assay was performed using the following procedure for Examples 184, 190 to 192, and 194 to 316:
The human TRPA1 gene was cloned into the pT-Rex-Dest30 inducible vector and stably transfected in T-Rex™-293 cells (Invitrogen, Merelbeke, Belgium). This tetracycline inducible hTRPA1 expression system was used in order to prevent CA^2+ overload in the cultured cells due to sustained TRPA1 expression. hTRPA1/TREx-HEK293 cells (referred to as jTRPA1 cells in the following text) were maintained under standard sterile cell culture conditions. The culture medium for the jTRPA1-HEK cells was DMEN (Gibco BRL, Invitrogen, Merelbeke, Belgium) supplemented with 5 g/l gengticin (Gibco), 5 mL/l blasticidin (Invitorgen), 14.6 g/l L-Glutamine (200 mMl; Gibco), 5 g/l penicillin/streptomycin (5.10-6 IU/I, Gibco), 5.5 g/l pyruvic acid (Gibco) and 10% foetal calf serum (Hyclone, Logan Utah, USA).
For Ca^2+ fluorometry experiments, hTRPA1-HEK cells were resuspended in HBSS seeding medium: HBSS (with CaCl2 and MgCl2: Gibco) supplemented with 14.6 g/l L-Glutamine (200 mM; Gibco), 5 g/l penicillin/streptomycin (5.10-6 IU/l. Gibco), 5.5 g/l pyruvic acid (Gibco) and 10% foetal calf serum (heat inactivated for 30 minutes at 56° C.; Hyclone, Logan Utah, USA). The cells were seeded in poly-D-lysine-coated 384-well round bottom polypropylene plates (Costar Corning, Data Packaging, Cambridge Mass., USA) at 12000 cells/well. Fifty ng/ml tetracycline was added to induce the hTRPA1 expression 24 h before the experiment.
The cells were loaded with 5 mg/l Fluo-4-AM (Molecular Probes, Invitorgen, Merelbeke, Belgium) dissolved in HBSS seeding medium supplemented with 0.7 g/l Probenecid (Sigma) and incubated for 1 h at 37° C. and subsequently at 20° C. for 1 to 2 h. The fluorescence was measured in the FDSS 6000 imaging based plate reader (Hamamutsu Photonics K.K., Hamamutsu City, Japan). The excitation wavelength was 488 nm and the emission wavelength 540 nm. After a control period of 12 seconds the inventive compounds were added and the Ca^2+ signal was measured within 14 minutes after application. Finally, a TRPA1 agonist, 6,11-dihydro-5H-dibenzo[b,e]azepine-10-carboxylic acid methyl ester, was added at a final concentration of 25 nM. The emission ratio was calculated by dividing the emission signal (Em540) by the first EM540 signal of the control period to compensate for the background fluorescence. […] For intracellular Ca^2+ measurements, a compound stock solution (10 to 100 mM) was further diluted in DMSO in order to obtain a final 1% DMSO concentration in the extracellular solution.
For `CCOC(=O)C1CCN(c2nc(CNC(=O)[C@@H]3CCCN3S(=O)(=O)c3ccc(F)cc3)cc(-c3ccc(C(F)(F)F)cc3)n2)CC1` (racemic) [Example 194, 1-[4-({[1-(4-Fluoro-benzenesulfonyl)-pyrrolidine-2S-carbonyl]-amino}-methyl)-6-(4-trifluoromethyl-phenyl)-pyrimidin-2-yl]-piperidine-4(R,S)-carboxylic acid ethyl ester], the pIC50 was 6.24. Work on `O=C(NCc1cc(-c2ccc(C(F)(F)F)cc2)nc(C(F)(F)F)n1)[C@@H]1CCCN1S(=O)(=O)c1ccc(F)cc1` [Example 184, 1-(4-Fluoro-benzenesulfonyl)-pyrrolidine-2S-carboxylic acid [2-trifluoromethyl-6-(4-trifluoromethyl-phenyl)-pyrimidin-4-ylmethyl]-amide] yielded a pIC50 of ~7.48. Compound `O=C(NCc1cc(-c2ccc(C(F)(F)F)cc2)nc(N2CCC[C@H]2CO)n1)[C@@H]1CCCN1S(=O)(=O)c1ccc(F)cc1` [Example 190, 1-(4-Fluoro-benzenesulfonyl)-pyrrolidine-2S-carboxylic acid [2-(2S-hydroxymethyl-pyrrolidin-1-yl)-6-(4-trifluoromethyl-phenyl)-pyrimidin-4-ylmethyl]-amide] has a pIC50 of ~5.71. In the case of `O=C(NCc1cc(-c2ccc(C(F)(F)F)cc2)nc(N[C@@H](CO)Cc2ccccc2)n1)[C@@H]1CCCN1S(=O)(=O)c1ccc(F)cc1` [Example 191, 1-(4-Fluoro-benzenesulfonyl)-pyrrolidine-2S-carboxylic acid [2-(1S-hydroxymethyl-2-phenyl-ethylamino)-6-(4-trifluoromethyl-phenyl)-pyrimidin-4-ylmethyl]-amide], the pIC50 was 5.67. `O=C(NCc1cc(-c2ccc(C(F)(F)F)cc2)nc(NC2CC2)n1)[C@@H]1CCCN1S(=O)(=O)c1ccc(F)cc1` [Example 192, 1-(4-Fluoro-benzenesulfonyl)-pyrrolidine-2S-carboxylic acid [2-cyclopropylamino-6-(4-trifluoromethyl-phenyl)-pyrimidin-4-ylmethyl]-amide] gave a pIC50 of ~6.23. In the case of `O=C(NCc1cc(-c2ccc(C(F)(F)F)cc2)nc(NCCc2ccc(Cl)cc2Cl)n1)[C@@H]1CCCN1S(=O)(=O)c1ccc(F)cc1` [Example 195, 1-(4-Fluoro-benzenesulfonyl)-pyrrolidine-2S-carboxylic acid [2-[2-(2,4-dichloro-phenyl)-ethylamino]-6-(4-trifluoromethyl-phenyl)-pyrimidin-4-ylmethyl]-amide], the pIC50 was 6.21. `CN1CCCC1CCNc1nc(CNC(=O)[C@@H]2CCCN2S(=O)(=O)c2ccc(F)cc2)cc(-c2ccc(C(F)(F)F)cc2)n1` (stereo partly drawn) [Example 196, 1-(4-Fluoro-benzenesulfonyl)-pyrrolidine-2S-carboxylic acid [2-[2-(1-methyl-pyrrolidin-2(R,S)-yl)-ethylamino]-6-(4-trifluoromethyl-phenyl)-pyrimidin-4-ylmethyl]-amide] gave a pIC50 of ~5.32. Compound `COc1ccc(CCNc2nc(CNC(=O)[C@@H]3CCCN3S(=O)(=O)c3ccc(F)cc3)cc(-c3ccc(C(F)(F)F)cc3)n2)cc1OC` [Example 197, 1-(4-Fluoro-benzenesulfonyl)-pyrrolidine-2S-carboxylic acid [2-[2-(3,4-dimethoxy-phenyl)-ethylamino]-6-(4-trifluoromethyl-phenyl)-pyrimidin-4-ylmethyl]-amide] has a pIC50 of ~5.94. `CN1CCCN(c2nc(CNC(=O)[C@@H]3CCCN3S(=O)(=O)c3ccc(F)cc3)cc(-c3ccc(C(F)(F)F)cc3)n2)CC1` [Example 198, 1-(4-Fluoro-benzenesulfonyl)-pyrrolidine-2S-carboxylic acid [2-(4-methyl-[1,4]diazepan-1-yl)-6-(4-trifluoromethyl-phenyl)-pyrimidin-4-ylmethyl]-amide] showed a pIC50 of ~5.52. Compound `NS(=O)(=O)c1ccc(CCNc2nc(CNC(=O)[C@@H]3CCCN3S(=O)(=O)c3ccc(F)cc3)cc(-c3ccc(C(F)(F)F)cc3)n2)cc1` [Example 199, 1-(4-Fluoro-benzenesulfonyl)-pyrrolidine-2S-carboxylic acid [2-[2-(4-sulfamoyl-phenyl)-ethylamino]-6-(4-trifluoromethyl-phenyl)-pyrimidin-4-ylmethyl]-amide] has a pIC50 of ~5.48. With `C#CCNc1nc(CNC(=O)[C@@H]2CCCN2S(=O)(=O)c2ccc(F)cc2)cc(-c2ccc3c(c2)OCO3)n1` [Example 200, 1-(4-Fluoro-benzenesulfonyl)-pyrrolidine-2S-carboxylic acid (6-benzo[1,3]dioxol-5-yl-2-prop-2-ynylamino-pyrimidin-4-ylmethyl)-amide] the pIC50 was 5.48. Work on `O=C(NCc1cc(-c2ccc3c(c2)OCO3)nc(NCc2cccnc2)n1)[C@@H]1CCCN1S(=O)(=O)c1ccc(F)cc1` [Example 201, 1-(4-Fluoro-benzenesulfonyl)-pyrrolidine-2S-carboxylic acid {6-benzo[1,3]dioxol-5-yl-2-[(pyridin-3-ylmethyl)-amino]-pyrimidin-4-ylmethyl}-amide] yielded a pIC50 of 5.09. `CCCCNc1nc(CNC(=O)[C@@H]2CCCN2S(=O)(=O)c2ccc(F)cc2)cc(-c2ccc3c(c2)OCO3)n1` [Example 202, 1-(4-Fluoro-benzenesulfonyl)-pyrrolidine-2S-carboxylic acid (6-benzo[1,3]dioxol-5-yl-2-butylamino-pyrimidin-4-ylmethyl)-amide] showed a pIC50 of ~5.62. For `O=C(NCc1cc(-c2ccc3c(c2)OCO3)nc(NCCc2ccccn2)n1)[C@@H]1CCCN1S(=O)(=O)c1ccc(F)cc1` [Example 203, 1-(4-Fluoro-benzenesulfonyl)-pyrrolidine-2S-carboxylic acid [6-benzo[1,3]dioxol-5-yl-2-(2-pyridin-2-yl-ethylamino)-pyrimidin-4-ylmethyl]-amide], the pIC50 was ~5.19. `O=C(NCc1cc(-c2ccc3c(c2)OCO3)nc(NC2CCCC2)n1)[C@@H]1CCCN1S(=O)(=O)c1ccc(F)cc1` [Example 204, 1-(4-Fluoro-benzenesulfonyl)-pyrrolidine-2S-carboxylic acid (6-benzo[1,3]dioxol-5-yl-2-cyclopentylamino-pyrimidin-4-ylmethyl)-amide] was tested, and the pIC50 was ~5.57. Work on `CCOC(=O)C1CCN(c2nc(CNC(=O)[C@@H]3CCCN3S(=O)(=O)c3ccc(F)cc3)cc(-c3ccc4c(c3)OCO4)n2)CC1` [Example 205, 1-[4-Benzo[1,3]dioxol-5-yl-6-({[1-(4-fluoro-benzenesulfonyl)-pyrrolidine-2S-carbonyl]-amino}-methyl)-pyrimidin-2-yl]-piperidine-4-carboxylic acid ethyl ester] yielded a pIC50 of ~5.75. With `O=C(NCc1cc(-c2ccc3c(c2)OCO3)nc(N2CCN(c3ccccn3)CC2)n1)[C@@H]1CCCN1S(=O)(=O)c1ccc(F)cc1` [Example 206, 1-(4-Fluoro-benzenesulfonyl)-pyrrolidine-2S-carboxylic acid [6-benzo[1,3]dioxol-5-yl-2-(4-pyridin-2-yl-piperazin-1-yl)-pyrimidin-4-ylmethyl]-amide] the pIC50 was 5.35.

These compounds were tested against T1, Human TRPA1 (assay: Assay 1: In vitro cellular testing of TRPA1 modulation (CHO-TREx, Fluo-3 calcium fluorescence, AITC agonist)). Conditions: CHO-TREx cells expressing human TRPA1; Fluo-3 fluorescence (FLIPR/Tetra); agonist 15 μM allyl isothiocyanate (AITC); 30 minute antagonist incubation.
Assay type: cell-based
Design: expressed in transfected cells; host or cells: CHO-TREx cells (Invitrogen), vector pcDNA4/TO
Procedure, shortened: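 Tetracycline-induced CHO-TREx cells stably expressing human TRPA1, loaded with 4 μM Fluo-3 AM, preincubated 30 min with compound (serial dilution typically from 10 μM, three-fold steps) in HEPES saline pH 7.4. Fluorescence change over 3 min after 15 μM AITC; IC50 from Hill fit versus no-antagonist and 10 μM ruthenium red controls.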
`CC1CCCN1c1cc(CNC(=O)[C@@H]2C=CCN2S(=O)(=O)c2ccc(Cl)s2)cc(-c2ccc(C(F)(F)F)cc2)n1` (stereo partly drawn) [Example 417, (2S)-1-[(5-Chlorothiophen-2-yl)sulfonyl]-N-({2-(2-methylpyrrolidin-1-yl)-6-[4-(trifluoromethyl)phenyl]pyridin-4-yl}methyl)-2,5-dihydro-1H-pyrrole-2-carboxamide] showed a pIC50 of 7.09.
